Test results: ChEMBL document CHEMBL5634117 (Eur J Med Chem, 2023)

How the values were obtained:
[1] = system: CCRF-CEM; assay: Growth inhibition of human CCRF-CEM cells assessed as reduction in cell viability measured after 48 hrs by SRB assay; assay type: functional
[2] = system: HL-60(TB); assay: Growth inhibition of human HL-60(TB) cells assessed as reduction in cell viability measured after 48 hrs by SRB assay; assay type: functional
[3] = system: K562; assay: Growth inhibition of human K562 cells assessed as reduction in cell viability measured after 48 hrs by SRB assay; assay type: functional
[4] = system: MOLT-4; assay: Growth inhibition of human MOLT-4 cells assessed as reduction in cell viability measured after 48 hrs by SRB assay; assay type: functional
[5] = system: SR; assay: Growth inhibition of human SR cells assessed as reduction in cell viability measured after 48 hrs by SRB assay; assay type: functional
[6] = system: A549; assay: Growth inhibition of human A549 cells assessed as reduction in cell viability measured after 48 hrs by SRB assay; assay type: functional
[7] = system: HOP-62; assay: Growth inhibition of human HOP-62 cells assessed as reduction in cell viability measured after 48 hrs by SRB assay; assay type: functional
[8] = system: NCI-H23; assay: Growth inhibition of human NCI-H23 cells assessed as reduction in cell viability measured after 48 hrs by SRB assay; assay type: functional
[9] = system: NCI-H322M; assay: Growth inhibition of human NCI-H322M cells assessed as reduction in cell viability measured after 48 hrs by SRB assay; assay type: functional
[10] = system: NCI-H460; assay: Growth inhibition of human NCI-H460 cells assessed as reduction in cell viability measured after 48 hrs by SRB assay; assay type: functional
[11] = system: HCC 2998; assay: Growth inhibition of human HCC 2998 cells assessed as reduction in cell viability measured after 48 hrs by SRB assay; assay type: functional
[12] = system: HCT-116; assay: Growth inhibition of human HCT-116 cells assessed as reduction in cell viability measured after 48 hrs by SRB assay; assay type: functional
[13] = system: HCT-15; assay: Growth inhibition of human HCT-15 cells assessed as reduction in cell viability measured after 48 hrs by SRB assay; assay type: functional
[14] = system: HT-29; assay: Growth inhibition of human HT-29 cells assessed as reduction in cell viability measured after 48 hrs by SRB assay; assay type: functional
[15] = system: KM12; assay: Growth inhibition of human KM12 cells assessed as reduction in cell viability measured after 48 hrs by SRB assay; assay type: functional
[16] = system: SW-620; assay: Growth inhibition of human SW620 cells assessed as reduction in cell viability measured after 48 hrs by SRB assay; assay type: functional
[17] = system: SF-268; assay: Growth inhibition of human SF-268 cells assessed as reduction in cell viability measured after 48 hrs by SRB assay; assay type: functional
[18] = system: SF-295; assay: Growth inhibition of human SF-295 cells assessed as reduction in cell viability measured after 48 hrs by SRB assay; assay type: functional
[19] = system: SNB-19; assay: Growth inhibition of human SNB-19 cells assessed as reduction in cell viability measured after 48 hrs by SRB assay; assay type: functional
[20] = system: SNB-75; assay: Growth inhibition of human SNB-75 cells assessed as reduction in cell viability measured after 48 hrs by SRB assay; assay type: functional
[21] = system: LOX IMVI; assay: Growth inhibition of human LOX IMVI cells assessed as reduction in cell viability measured after 48 hrs by SRB assay; assay type: functional
[22] = system: Malme-3M; assay: Growth inhibition of human Malme-3M cells assessed as reduction in cell viability measured after 48 hrs by SRB assay; assay type: functional
[23] = system: M14; assay: Growth inhibition of human M14 cells assessed as reduction in cell viability measured after 48 hrs by SRB assay; assay type: functional
[24] = system: SK-MEL-2; assay: Growth inhibition of human SK-MEL-2 cells assessed as reduction in cell viability measured after 48 hrs by SRB assay; assay type: functional
[25] = system: UACC-62; assay: Growth inhibition of human UACC-62 cells assessed as reduction in cell viability measured after 48 hrs by SRB assay; assay type: functional
[26] = system: OVCAR-4; assay: Growth inhibition of human OVCAR-4 cells assessed as reduction in cell viability measured after 48 hrs by SRB assay; assay type: functional
[27] = system: OVCAR-5; assay: Growth inhibition of human OVCAR-5 cells assessed as reduction in cell viability measured after 48 hrs by SRB assay; assay type: functional
[28] = system: OVCAR-8; assay: Growth inhibition of human OVCAR-8 cells assessed as reduction in cell viability measured after 48 hrs by SRB assay; assay type: functional
[29] = system: NCI/ADR-RES; assay: Growth inhibition of human NCI/ADR-RES cells assessed as reduction in cell viability measured after 48 hrs by SRB assay; assay type: functional
[30] = system: 786-0; assay: Growth inhibition of human 786-0 cells assessed as reduction in cell viability measured after 48 hrs by SRB assay; assay type: functional
[31] = system: A498; assay: Growth inhibition of human A498 cells assessed as reduction in cell viability measured after 48 hrs by SRB assay; assay type: functional
[32] = system: ACHN; assay: Growth inhibition of human ACHN cells assessed as reduction in cell viability measured after 48 hrs by SRB assay; assay type: functional
[33] = system: CAKI-1; assay: Growth inhibition of human CAKI-1 cells assessed as reduction in cell viability measured after 48 hrs by SRB assay; assay type: functional
[34] = system: RXF 393; assay: Growth inhibition of human RXF 393 cells assessed as reduction in cell viability measured after 48 hrs by SRB assay; assay type: functional
[35] = system: SN12C; assay: Growth inhibition of human SN12C cells assessed as reduction in cell viability measured after 48 hrs by SRB assay; assay type: functional
[36] = system: TK-10; assay: Growth inhibition of human TK-10 cells assessed as reduction in cell viability measured after 48 hrs by SRB assay; assay type: functional
[37] = system: UO-31; assay: Growth inhibition of human UO-31 cells assessed as reduction in cell viability measured after 48 hrs by SRB assay; assay type: functional
[38] = system: MCF7; assay: Growth inhibition of human MCF7 cells assessed as reduction in cell viability measured after 48 hrs by SRB assay; assay type: functional
[39] = system: MDA-MB-231; assay: Growth inhibition of human MDA-MB-231 cells assessed as reduction in cell viability measured after 48 hrs by SRB assay; assay type: functional
[40] = system: Hs-578T; assay: Growth inhibition of human Hs-578T cells assessed as reduction in cell viability measured after 48 hrs by SRB assay; assay type: functional
[41] = system: BT-549; assay: Growth inhibition of human BT-549 cells assessed as reduction in cell viability measured after 48 hrs by SRB assay; assay type: functional
[42] = system: T47D; assay: Growth inhibition of human T47D cells assessed as reduction in cell viability measured after 48 hrs by SRB assay; assay type: functional
[43] = system: MDA-MB-468; assay: Growth inhibition of human MDA-MB-468 cells assessed as reduction in cell viability measured after 48 hrs by SRB assay; assay type: functional
[44] = biological target: Mitogen-activated protein kinase 8 (Homo sapiens, UniProt P45983); assay: Inhibition of human JNK1 at 10 uM in presence of ATP relative to control
[45] = biological target: Mitogen-activated protein kinase 9 (Homo sapiens, UniProt P45984); assay: Inhibition of human JNK2 at 10 uM in presence of ATP relative to control
[46] = biological target: Mitogen-activated protein kinase 10 (Homo sapiens, UniProt P53779); assay: Inhibition of human JNK3 at 10 uM in presence of ATP relative to control
Chain of Mitogen-activated protein kinase 10 (P53779 whole entry): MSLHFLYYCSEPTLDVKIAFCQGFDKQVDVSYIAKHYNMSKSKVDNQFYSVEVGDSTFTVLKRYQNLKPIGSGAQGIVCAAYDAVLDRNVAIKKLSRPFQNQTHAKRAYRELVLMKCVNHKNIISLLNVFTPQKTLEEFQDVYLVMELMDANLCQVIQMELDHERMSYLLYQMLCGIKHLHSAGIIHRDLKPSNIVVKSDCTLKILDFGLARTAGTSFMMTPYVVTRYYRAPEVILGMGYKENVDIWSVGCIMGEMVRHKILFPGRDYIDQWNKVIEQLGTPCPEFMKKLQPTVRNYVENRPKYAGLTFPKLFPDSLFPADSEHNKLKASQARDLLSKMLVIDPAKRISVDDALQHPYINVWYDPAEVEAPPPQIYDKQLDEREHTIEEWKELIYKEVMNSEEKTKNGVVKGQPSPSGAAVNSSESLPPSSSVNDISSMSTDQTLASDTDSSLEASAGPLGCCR

Chain of Mitogen-activated protein kinase 8 (P45983 whole entry): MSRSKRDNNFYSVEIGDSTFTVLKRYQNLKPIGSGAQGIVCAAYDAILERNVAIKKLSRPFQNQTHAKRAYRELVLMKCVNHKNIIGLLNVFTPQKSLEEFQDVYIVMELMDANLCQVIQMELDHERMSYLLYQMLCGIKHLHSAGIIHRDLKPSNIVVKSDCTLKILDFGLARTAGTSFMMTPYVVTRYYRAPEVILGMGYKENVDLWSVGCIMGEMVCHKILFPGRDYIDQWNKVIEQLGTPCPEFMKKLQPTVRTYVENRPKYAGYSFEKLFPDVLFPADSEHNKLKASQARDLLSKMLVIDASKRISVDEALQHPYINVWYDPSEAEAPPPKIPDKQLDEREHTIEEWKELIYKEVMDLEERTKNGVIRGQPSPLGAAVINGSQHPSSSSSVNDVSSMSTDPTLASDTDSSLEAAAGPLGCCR
Chain of Mitogen-activated protein kinase 9 (P45984 whole entry, looked up): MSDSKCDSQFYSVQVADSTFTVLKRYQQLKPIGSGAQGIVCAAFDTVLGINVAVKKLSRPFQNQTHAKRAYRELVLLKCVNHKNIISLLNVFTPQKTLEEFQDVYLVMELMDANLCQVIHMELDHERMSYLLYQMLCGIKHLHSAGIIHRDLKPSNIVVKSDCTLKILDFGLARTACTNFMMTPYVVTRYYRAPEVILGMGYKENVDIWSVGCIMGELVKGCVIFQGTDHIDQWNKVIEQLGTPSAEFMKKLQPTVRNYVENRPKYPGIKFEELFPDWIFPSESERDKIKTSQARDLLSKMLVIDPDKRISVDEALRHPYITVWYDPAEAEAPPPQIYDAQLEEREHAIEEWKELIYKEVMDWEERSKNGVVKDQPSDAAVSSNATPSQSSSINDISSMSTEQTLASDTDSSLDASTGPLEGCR

Work on CC(C)(C)n1cc(-c2ccnc(NCCCNS(=O)(=O)c3ccc(C(F)(F)F)cc3)c2)c(-c2cccc(O)c2)n1 yielded a GI50 [1] of 2980 nM, a GI50 [2] of 2810 nM and a GI50 [3] of 2100 nM. It also gave a GI50 [4] of 2330 nM, a GI50 [5] of 2210 nM and a GI50 [6] of 2020 nM. For the same compound, the GI50 [7] was 1930 nM, the GI50 [8] was 1670 nM and the GI50 [9] was 2070 nM. For the same compound, the GI50 [10] was 1860 nM, the GI50 [11] was 1820 nM and the GI50 [12] was 1550 nM. For the same compound, the GI50 [13] was 1470 nM, the GI50 [14] was 1450 nM and the GI50 [15] was 2150 nM. The GI50 [16] was 1890 nM, the GI50 [17] was 1750 nM and the GI50 [18] was 1690 nM. The GI50 [19] was 1980 nM, the GI50 [20] was 1940 nM and the GI50 [21] was 1720 nM. It also gave a GI50 [22] of 1720 nM, a GI50 [23] of 2000 nM and a GI50 [24] of 2100 nM. The GI50 [25] was 1690 nM, the GI50 [26] was 2290 nM and the GI50 [27] was 1810 nM. For the same compound, the GI50 [28] was 2460 nM, the GI50 [29] was 2070 nM and the GI50 [30] was 1800 nM. For the same compound, the GI50 [31] was 1540 nM, the GI50 [32] was 1880 nM and the GI50 [33] was 1990 nM. The GI50 [34] was 1460 nM, the GI50 [35] was 1610 nM and the GI50 [36] was 2310 nM. For the same compound, the GI50 [37] was 1580 nM, the GI50 [38] was 1780 nM and the GI50 [39] was 2130 nM. The GI50 [40] was 1980 nM, the GI50 [41] was 1610 nM and the GI50 [42] was 2240 nM. For the same compound, the GI50 [43] was 1880 nM, the inhibition [44] was 99.5% and the inhibition [45] was 98.7%. The inhibition [46] was 98.6%.
In the case of CC(C)(C)n1cc(-c2ccnc(NCCCNS(=O)(=O)c3cccc4ccccc34)c2)c(-c2cccc(O)c2)n1, the GI50 [1] is reported as 2440 nM, the GI50 [2] is reported as 2680 nM and the GI50 [3] is reported as 1480 nM. For the same compound, the GI50 [4] was 2000 nM, the GI50 [5] was 1400 nM and the GI50 [6] was 2290 nM. It also gave a GI50 [7] of 1830 nM, a GI50 [8] of 1780 nM and a GI50 [9] of 2660 nM. The GI50 [10] was 1930 nM, the GI50 [11] was 1870 nM and the GI50 [12] was 1400 nM. The GI50 [13] was 1530 nM, the GI50 [14] was 1270 nM and the GI50 [15] was 2340 nM. The GI50 [16] was 1810 nM, the GI50 [17] was 2770 nM and the GI50 [18] was 1800 nM. The GI50 [19] was 2630 nM, the GI50 [20] was 1880 nM and the GI50 [21] was 1730 nM. For the same compound, the GI50 [22] was 1510 nM, the GI50 [23] was 1680 nM and the GI50 [24] was 1880 nM. It also gave a GI50 [25] of 1670 nM, a GI50 [26] of 1920 nM and a GI50 [27] of 1980 nM. It also gave a GI50 [28] of 2380 nM, a GI50 [29] of 1850 nM and a GI50 [30] of 2090 nM. It also gave a GI50 [31] of 1370 nM, a GI50 [32] of 2700 nM and a GI50 [33] of 2490 nM. For the same compound, the GI50 [34] was 1520 nM, the GI50 [35] was 1730 nM and the GI50 [36] was 2850 nM. It also gave a GI50 [37] of 2260 nM, a GI50 [38] of 1910 nM and a GI50 [39] of 2320 nM. It also gave a GI50 [40] of 1890 nM, a GI50 [41] of 1840 nM and a GI50 [42] of 2220 nM. The GI50 [43] was 2040 nM, the inhibition [44] was 100% and the inhibition [45] was 99.1%. For the same compound, the inhibition [46] was 98.7%.
